Test results as given in patent publication US20230149508A1, “COMPOSITIONS AND METHODS FOR TREATING COMPLICATIONS OF VIRAL INFECTIONS AND OTHER RESPIRATORY DISORDERS” (priority 2020, published 2023).
Entries after “also recorded” stand apart in the source; their conditions may differ. Peptide text beside a SMILES is read from it. * marks the point of attachment. Biotin = O=C1N[C@H]2[C@H](CS[C@H]2CCCCC(=O)*)N1; Ahx = NCCCCCC(=O)O

Experiments:
[1] = From the text: (§1) Clinical trials have been undertaken to assess safety of topical delivery of aCT1.
human subjects [2] = conditions: in vivo
From the text: as §1

[3] = test system: normal human bronchial epithelial cells (NHBE); experiment: Trans-epithelial resistance (TER) of NHBE monolayers after H2O2 exposure; assay type: cell-based; conditions: aCT1 pre-treatment, exposure to 100 mM H2O2; n=3
Procedure: (n=3, compared to H2O2 *:p<0.05, **:p<0.01, ***:p<0.0001)
(§2) To determine if aCT1 treatment preserves junctional integrity in human lung cells, human bronchial epithelial cells (NHBEs) were grown as confluent monolayers on Transwell inserts and trans-epithelial resistance (TER) recorded. TER readings measure electrical resistance across a cell monolayer and provide a quantitative metric of intercellular junction integrity.

[4] = test system: Human lung microvascular endothelial cells (HLMEC); experiment: TER of HLMEC after LPS exposure; assay type: cell-based; conditions: n=3, p<0.0001 vs LPS
Procedure: Human lung microvascular endothelial cells (HLMEC) were exposed to 10 μg LPS. Cells were treated with aCT1 prior to exposure or 24 hrs post LPS insult, scrambled control, or sham control. […] (n=3, compared to LPS ***:p<0.0001).
as §2

rats = experiment: Intravenous (bolus) toxicity of aCT1 in rats; assay type: in vivo, rat; conditions: intravenous bolus
Procedure: (§3) Clinical signs were only observed at aCT1 administration levels that are well above the therapeutic range of efficacy, following intravenous administration of aCT1 at ≥10 mg/kg (Maximum Tolerated Dose). The results of these studies uniformly support aCT1 tolerability when delivered locally and systemically via various routes.

[5] = Intravenous (bolus) toxicity of aCT1 in rats; assay type: in vivo, rat; conditions: rat, in vivo
Procedure: as §3

[6] = test system: C57BL/6 mice intranasally challenged with a lethal dose of lipopolysaccharide (LPS); experiment: Lethal LPS-induced lung injury (ARDS) mouse model, survival; assay type: in vivo; conditions: p<0.01 vs LPS, n=10/group
Procedure: C57BL/6 mice were pretreated with either 1000 uM aCT1, 1000 uM scrambled aCT1, or vehicle control prior to inoculation with a lethal dose (35 mg/kg/mouse) of LPS. A further group was treated with aCT1 6 hrs post inoculation of LPS. n=10/group (p<0.01 LPS vs LPS pre-aCT1, p<0.01 LPS vs LPS post aCT1).
Studies were undertaken to assess whether delivery of aCT1 to the respiratory tract in animal models of ARDS would reduce epithelial and endothelial breakdown, thereby preserving the air-liquid barrier while preventing fluid accumulation and reducing immune cell infiltration, resulting in the amelioration of ARDS pathology and preserving lung function to improve survival. Using a well characterized mouse model of ARDS, we investigated whether aCT1 applied directly to the lungs could inhibit severe endotoxin induced lung injury. C57BL/6 mice were intranasally challenged with a lethal dose of lipopolysaccharide (LPS) and were treated with aCT1 immediately prior to LPS administration, or 6 h post LPS exposure (FIG. 2).

human subjects [7] = conditions: local (topical) delivery, clinical trials; cited from earlier work

CC[C@H](C)[C@H](NC(=O)[C@H](CCC(=O)O)NC(=O)[C@H](CC(C)C)NC(=O)[C@H](CC(=O)O)NC(=O)[C@H](CC(=O)O)NC(=O)[C@@H]1CCCN1C(=O)[C@H](CCCNC(=N)N)NC(=O)[C@@H]1CCCN1C(=O)[C@H](CCCNC(=N)N)NC(=O)[C@H](CCCCN)NC(=O)[C@H](CCCCN)NC(=O)[C@H](Cc1c[nH]c2ccccc12)NC(=O)[C@@H]1CCCN1C(=O)[C@H](CCCCN)NC(=O)[C@H](CCCNC(=N)N)NC(=O)[C@H](CCCNC(=N)N)NC(=O)[C@H](CC(N)=O)NC(=O)[C@@H]1CCCN1C(=O)[C@H](Cc1ccccc1)NC(=O)[C@H](Cc1c[nH]c2ccccc12)NC(=O)[C@@H](NC(=O)[C@H](CCCCN)NC(=O)[C@@H]1CCCN1C(=O)[C@H](CCC(N)=O)NC(=O)[C@H](CCCNC(=N)N)NC(=O)CCCCCNC(=O)CCCC[C@@H]1SC[C@@H]2NC(=O)N[C@@H]21)[C@@H](C)CC)C(=O)O [aCT1] ({Biotin-Ahx}-RQPKIWFPNRRKPWKKRPRPDDLEI-OH; N-terminus and C-terminus assumed)
Immunogenicity (anti-aCT1 antibodies) ([1]; any preclinical study or clinical trial): not immunogenic | half-life ([1]; human): 15 to 20 min | Drug related adverse events (human subjects [2]): no drug related adverse events | Systemic exposure (pharmacokinetic studies in clinical trials) (human subjects [2]): no systemic exposure | TER (epithelial barrier integrity) [3]: significantly increased TER readings; also recorded: stabilized intercellular junctions | TER (endothelial barrier integrity) ([4]; aCT1 pre-treatment prior to 10 μg LPS): significantly improved endothelial TER readings; also recorded: preserved barrier integrity | TER (endothelial barrier integrity) ([4]; aCT1 treatment 24 hrs post LPS insult (10 μg LPS)): significantly improved endothelial TER readings; also recorded: preserved barrier integrity | Tolerability (rats): well tolerated | MTD ([5]; intravenous administration, read-out: Dose at which clinical signs were observed (Maximum Tolerated Dose)): ≥ 10 mg/kg | NOAEL ([5]; intravenous bolus, read-out: no-observable-adverse-effect level (NOAEL)): 5 mg/kg | Survival / LPS-induced mortality ([6]; aCT1 treatment 6 hrs post LPS inoculation (35 mg/kg/mouse)): significant protection against LPS-induced mortality; also recorded: significantly improved survival | Survival / LPS-induced mortality ([6]; intranasal 1000 uM aCT1 pre-treatment prior to lethal LPS (35 mg/kg/mouse)): significant protection against LPS-induced mortality; also recorded: significantly improved survival | Efficacy and safety in acute and chronic skin injuries (human subjects [7]): demonstrated the efficacy and safety
